Results taken from patent US8889688B2, “Piperazines as antimalarial agents” (Actelion Pharmaceuticals Ltd., priority 2011, dated 2014).
pIC50: −log10 of the molar value. Where two headings read alike, the source gives them in different places.

Tests used:
[1] = test system: erythrocytic stages of P. falciparum NF54; experiment: Plasmodium falciparum in vitro assay, [3H] hypoxanthine incorporation; assay type: cell-based; conditions: Plasmodium falciparum, Erythrocyte, 72 h, P. falciparum NF54 in human red blood cells, 48 h + 24 h incubation
Summary of the method: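 Cultures in human red blood cells (2.5% hematocrit, 0.3% parasitemia) were exposed to serially diluted compounds for 48 h at 37° C. under 4% CO2, 3% O2, 93% N2. [3H] hypoxanthine (0.5 μCi) was added for a further 24 h, incorporation counted by scintillation, and IC50 derived from sigmoidal inhibition curves.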

[2] = test system: P. berghei strain GFP-ANKA; experiment: In vivo antimalarial efficacy study in infected NMRI mice; conditions: Plasmodium berghei; female NMRI mice infected with P. berghei GFP-ANKA; single oral dose of 100 mg/kg 24 h after infection; parasitemia 48 h after drug treatment (day 3); read-out: Activity (inhibition of parasitemia) expressed as a percent relative to the control group
Method: In Vivo Antimalarial Efficacy Studies
In vivo antimalarial activity is assessed for groups of three female NMRI mice (20-22 g) intravenously infected on day 0 with P. berghei strain GFP-ANKA (0.2 mL heparinized saline suspension containing 2×10^7 parasitized erythrocytes). In control mice, parasitemia typically rises to approximately 40% by day 3 after infection. Compounds are formulated in Tween 80/ethanol (7%/3%) usually at concentrations of 10 mg/mL. Compounds are administered in a volume of 10 mL/kg orally as single doses (1×100 mg/kg, 24 h after infection). 48 h after drug treatment (day 3 post-infection), 1 μl tail blood is taken, resuspended in 1 mL PBS buffer and parasitemia determined with a FACScan (Becton Dickinson) by counting 100′000 red blood cells. Activity is calculated as the difference between the mean value of the control group and treated groups expressed as a percent relative to the control group.

[3] = screening medium with Albumax (5 g/L), read-out: IC50 on NF54 (with Albumax)
[4] = screening medium with human serum (50% final concentration), read-out: IC50 on NF54 (with 50% Serum)

| Structure (SMILES) | pIC50 [1, 3] | pIC50 [1, 4] | inhibition in vivo at 100 mg/kg [2] |
| --- | --- | --- | --- |
| CC(=O)N1CCN(c2ccc(CN(C(=O)C=Cc3ccc(C(C)(C)C)cc3)[C@@H](Cc3ccccc3)C(=O)N3CCN(Cc4ccc(C#N)cc4)CC3)cc2)CC1 [Example 34, (S)-N-[4-(4-Acetyl-piperazin-1-yl)-benzyl]-N-{1-benzyl-2-[4-(4-cyano-benzyl)-piperazin-1-yl]-2-oxo-ethyl}-3-(4-tert-butyl-phenyl)-acrylamide] | 9.30 | 8.42 | 99.2% |
| COc1ccc(C=CC(=O)N(Cc2ccc(N3CCN(C(C)=O)CC3)cc2)[C@@H](Cc2ccccc2)C(=O)N2CCN(Cc3ccc(N(C)CCO)cc3)CC2)cn1 [Example 52, (S)-N-[4-(4-Acetyl-piperazin-1-yl)-benzyl]-N-[1-benzyl-2-(4-{4-[(2-hydroxy-ethyl)-methyl-amino]-benzyl}-piperazin-1-yl)-2-oxo-ethyl]-3-(6-methoxy-pyridin-3-yl)-acrylamide] | 8.00 | 7.48 | < 40% |
| CC(=O)N1CCN(c2ccc(CN(C(=O)C=Cc3ccc(OC(F)F)cc3)[C@@H](Cc3ccccc3)C(=O)N3CCN(Cc4ccc(Cl)cc4)CC3)cc2)CC1 [Example 41, (S)-N-[4-(4-Acetyl-piperazin-1-yl)-benzyl]-N-{1-benzyl-2-[4-(4-chloro-benzyl)-piperazin-1-yl]-2-oxo-ethyl}-3-(4-difluoromethoxy-phenyl)-acrylamide] | 8.54 | 7.90 | 71% |
| CC(=O)N1CCN(c2ccc(CN(C(=O)C=Cc3ccc(C(C)(C)C)cc3)[C@@H](Cc3ccccc3)C(=O)N3CCN(Cc4ccc(S(C)(=O)=O)cc4)CC3)cc2)CC1 [Example 45, (S)-N-[4-(4-Acetyl-piperazin-1-yl)-benzyl]-N-{1-benzyl-2-[4-(4-(methylsulfonyl)-benzyl)-piperazin-1-yl]-2-oxo-ethyl}-3-(4-tert-butyl-phenyl)-acrylamide] | 9.70 | 8.74 | 99.4% |
| CCOc1ccc(C=CC(=O)N(Cc2ccc(N3CCN(C(C)=O)CC3)cc2)[C@@H](Cc2ccccc2)C(=O)N2CCN(Cc3ccccc3)CC2)cc1 [Example 4, (S)-N-[4-(4-Acetyl-piperazin-1-yl)-benzyl]-N-[1-benzyl-2-(4-benzyl-piperazin-1-yl)-2-oxo-ethyl]-3-(4-ethoxy-phenyl)-acrylamide] | 8.72 | 8.00 | 97.4% |
| CCS(=O)(=O)c1ccc(CN2CCN(C(=O)[C@H](Cc3ccccc3)N(Cc3ccc(N4CCN(C(C)=O)CC4)cc3)C(=O)C=Cc3ccc(C(F)(F)F)cc3)CC2)cc1 [Example 49, (S)-N-(4-(4-acetylpiperazin-1-yl)benzyl)-N-(1-(4-(4-(ethylsulfonyl)benzyl)piperazin-1-yl)-1-oxo-3-phenylpropan-2-yl)-3-(4-(trifluoromethyl)phenyl)acrylamide] | 9.10 | 8.51 | 98.6% |
| CC(=O)N1CCN(c2ccc(CN(C(=O)C=Cc3ccc(C(C)(C)C)cc3)[C@@H](Cc3ccccc3)C(=O)N3CCN(Cc4ccc(N(C)C)cc4)CC3)cc2)CC1 [Example 22, (S)-N-[4-(4-Acetyl-piperazin-1-yl)-benzyl]-N-{1-benzyl-2-[4-(4-dimethylamino-benzyl)-piperazin-1-yl]-2-oxo-ethyl}-3-(4-tert-butyl-phenyl)-acrylamide] | 8.89 | 7.96 | 99.3% |
| CCc1ccc(C=CC(=O)N(Cc2ccc(N3CCN(C(C)=O)CC3)cc2)[C@@H](Cc2ccccc2)C(=O)N2CCN(Cc3ccccc3)CC2)cc1 [Example 2, (S)-N-[4-(4-Acetyl-piperazin-1-yl)-benzyl]-N-[1-benzyl-2-(4-benzyl-piperazin-1-yl)-2-oxo-ethyl]-3-(4-ethyl-phenyl)-acrylamide] | 8.70 | 8.00 | 94.1% |
| CCCOc1ccc(C=CC(=O)N(Cc2ccc(N3CCN(C(C)=O)CC3)cc2)[C@@H](Cc2ccccc2)C(=O)N2CCN(Cc3ccccc3)CC2)cc1 [Example 8, (S)-N-[4-(4-Acetyl-piperazin-1-yl)-benzyl]-N-[1-benzyl-2-(4-benzyl-piperazin-1-yl)-2-oxo-ethyl]-3-(4-propoxy-phenyl)-acrylamide] | 8.74 | 7.87 | 99.4% |
| CC(=O)N1CCN(c2ccc(CN(C(=O)C=Cc3ccc(C(C)(C)C)cc3)[C@@H](Cc3ccccc3)C(=O)N3CCN(Cc4ccccc4)CC3)cc2)CC1 [Example 3, (S)-N-[4-(4-Acetyl-piperazin-1-yl)-benzyl]-N-[1-benzyl-2-(4-benzyl-piperazin-1-yl)-2-oxo-ethyl]-3-(4-tert-butyl-phenyl)-acrylamide] | 8.72 | 8.07 | 98.7% |
| CCc1ccc(C=CC(=O)N(Cc2ccc(N3CCN(C(C)=O)CC3)cc2)[C@@H](Cc2ccccc2)C(=O)N2CCN(Cc3ccc(C#N)cc3)CC2)cc1 [Example 30, (S)-N-[4-(4-Acetyl-piperazin-1-yl)-benzyl]-N-{1-benzyl-2-[4-(4-cyano-benzyl)-piperazin-1-yl]-2-oxo-ethyl}-3-(4-ethyl-phenyl)-acrylamide] | 9.05 | 8.30 | 97.7% |
| CC(=O)N1CCN(c2ccc(CN(C(=O)C=Cc3ccc(C(C)(C)C)cc3)[C@@H](Cc3ccccc3)C(=O)N3CCN(Cc4ccc(N(C)CCO)cc4)CC3)cc2)CC1 [Example 62, (S)-N-[4-(4-Acetyl-piperazin-1-yl)-benzyl]-N-[1-benzyl-2-(4-{4-[(2-hydroxy-ethyl)-methyl-amino]-benzyl}-piperazin-1-yl)-2-oxo-ethyl]-3-(4-tert-butyl-phenyl)-acrylamide] | 9.15 | 8.49 | 99.4% |
| CC(=O)N1CCN(c2ccc(CN(C(=O)C=Cc3ccc(C(C)C)cc3)[C@@H](Cc3ccccc3)C(=O)N3CCN(Cc4ccc(Cl)cc4)CC3)cc2)CC1 [Example 42, (S)-N-[4-(4-Acetyl-piperazin-1-yl)-benzyl]-N-{1-benzyl-2-[4-(4-chloro-benzyl)-piperazin-1-yl]-2-oxo-ethyl}-3-(4-isopropyl-phenyl)-acrylamide] | 8.77 | 7.86 | 97.3% |
| CCCOc1ccc(C=CC(=O)N(Cc2ccc(N3CCN(C(C)=O)CC3)cc2)[C@@H](Cc2ccccc2)C(=O)N2CCN(Cc3ccc(S(C)(=O)=O)cc3)CC2)cc1 [Example 46, (S)-N-[4-(4-Acetyl-piperazin-1-yl)-benzyl]-N-{1-benzyl-2-[4-(4-(methylsulfonyl)-benzyl)-piperazin-1-yl]-2-oxo-ethyl}-3-(4-propoxyphenyl)-acrylamide] | 9.40 | 8.96 | 98.9% |
| CCCOc1ccc(C=CC(=O)N(Cc2ccc(N3CCN(C(C)=O)CC3)cc2)[C@@H](Cc2ccccc2)C(=O)N2CCN(Cc3ccc(N(C)C)cc3)CC2)cc1 [Example 18, (S)-N-[4-(4-Acetyl-piperazin-1-yl)-benzyl]-N-{1-benzyl-2-[4-(4-dimethylamino-benzyl)-piperazin-1-yl]-2-oxo-ethyl}-3-(4-propoxy-phenyl)-acrylamide] | 8.60 | 7.93 | 99.1% |
| CCCOc1ccc(C=CC(=O)N(Cc2ccc(N3CCN(C(C)=O)CC3)cc2)[C@@H](Cc2ccccc2)C(=O)N2CCN(Cc3ccc(S(=O)(=O)CC)cc3)CC2)cc1 [Example 48, (S)-N-[4-(4-Acetyl-piperazin-1-yl)-benzyl]-N-{1-benzyl-2-[4-(4-(ethylsulfonyl)-benzyl)-piperazin-1-yl]-2-oxo-ethyl}-3-(4-propoxyphenyl)-acrylamide] | 9.30 | 8.80 | 99% |
| CCCOc1ccc(C=CC(=O)N(Cc2ccc(N3CCN(C(C)=O)CC3)cc2)[C@@H](Cc2ccccc2)C(=O)N2CCN(Cc3ccc(Cl)cc3)CC2)cc1 [Example 38, (S)-N-[4-(4-Acetyl-piperazin-1-yl)-benzyl]-N-{1-benzyl-2-[4-(4-chloro-benzyl)-piperazin-1-yl]-2-oxo-ethyl}-3-(4-propoxy-phenyl)-acrylamide] | 8.74 | 8.05 | 98.5% |
| CC(=O)N1CCN(c2ccc(CN(C(=O)C=Cc3ccc(OC(C)C)cc3)[C@@H](Cc3ccccc3)C(=O)N3CCN(Cc4ccc(N(C)C)cc4)CC3)cc2)CC1 [Example 19, (S)-N-[4-(4-Acetyl-piperazin-1-yl)-benzyl]-N-{1-benzyl-2-[4-(4-dimethylamino-benzyl)-piperazin-1-yl]-2-oxo-ethyl}-3-(4-isopropoxy-phenyl)-acrylamide] | 8.59 | 8.03 | 99.2% |
